Reference: patent publication US20130197009A1, “ANTAGONIST FOR MUTANT ANDROGEN RECEPTOR” (ASTELLAS PHARMA INC., priority 2010, published 2013)
Numbering of substitutions follows the chain as printed.

Tests used:
human T877A mutant AR = molecular target: T1, human T877A mutant AR (Homo sapiens, UniProt P10275, T878A); assay: Inhibitory action against transcriptional activation of mutant AR (luciferase reporter, CHO-K1 cells, DHT 0.3 nM); format: cell-based; conditions: CHO-K1 cells stably expressing T877A mutant AR, with DHT 0.3 nM, >1000 nM means no inhibitory action observed, read-out: IC50, inhibition of transcriptional activation, T877A
T1 construct: expressed in transfected cells; host or cells: CHO-K1
T1 sequence (P10275 1-920 T878A): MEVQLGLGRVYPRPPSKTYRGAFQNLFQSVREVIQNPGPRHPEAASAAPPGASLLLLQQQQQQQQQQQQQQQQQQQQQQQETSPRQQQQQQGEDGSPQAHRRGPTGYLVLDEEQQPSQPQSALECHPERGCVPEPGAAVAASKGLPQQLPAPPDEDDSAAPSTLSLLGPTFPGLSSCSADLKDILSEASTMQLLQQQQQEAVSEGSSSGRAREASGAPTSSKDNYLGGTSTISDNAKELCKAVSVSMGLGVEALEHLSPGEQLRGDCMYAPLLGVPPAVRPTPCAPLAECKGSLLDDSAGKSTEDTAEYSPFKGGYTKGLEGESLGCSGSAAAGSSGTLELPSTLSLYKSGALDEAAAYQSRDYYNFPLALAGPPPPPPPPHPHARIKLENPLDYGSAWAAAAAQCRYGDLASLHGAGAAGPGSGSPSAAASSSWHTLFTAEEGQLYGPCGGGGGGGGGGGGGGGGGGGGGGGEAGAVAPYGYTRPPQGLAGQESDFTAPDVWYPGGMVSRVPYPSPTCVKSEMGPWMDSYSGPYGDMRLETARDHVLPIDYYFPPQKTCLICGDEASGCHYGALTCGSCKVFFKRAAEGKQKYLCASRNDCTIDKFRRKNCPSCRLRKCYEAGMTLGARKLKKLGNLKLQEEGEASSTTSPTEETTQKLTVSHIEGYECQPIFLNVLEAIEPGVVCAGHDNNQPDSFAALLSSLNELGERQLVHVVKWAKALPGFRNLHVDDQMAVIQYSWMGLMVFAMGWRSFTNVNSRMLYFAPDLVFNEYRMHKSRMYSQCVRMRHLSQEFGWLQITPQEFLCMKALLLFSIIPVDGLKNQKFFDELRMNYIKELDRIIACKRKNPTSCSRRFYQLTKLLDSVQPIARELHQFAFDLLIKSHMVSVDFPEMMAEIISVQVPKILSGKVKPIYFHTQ
Protocol: Subsequently, the cells were incubated overnight again at 37° C. and then treated with a luciferase assay system.
An IC50 value was calculated by Sigmoid-Emax model nonlinear regression analysis.
The inhibitory action of the respective test compounds against the receptor was calculated as an IC50 value, and the values are described in the following table. In addition, “-” means that the test was not performed.

wild type AR (Wild) = molecular target: T2, wild type AR (Wild) (Homo sapiens, UniProt P10275); assay: Inhibitory action against transcriptional activation of AR (luciferase reporter, CHO-K1 cells, DHT 0.3 nM)
T2 sequence (P10275 1-920): T1 sequence (P10275 1-920 T878A) with A878T

| SMILES | IC50 (human T877A mutant AR) [nM] | IC50 (wild type AR (Wild)) [nM] |
| --- | --- | --- |
| C[C@@H]1CN(c2ccc(C#N)c(Cl)c2)[C@@H](C)CN1C(=O)Nc1cnc2ccccc2n1 [Ref 1-3, (2R,5S)-4-(3-chloro-4-cyanophenyl)-2,5-dimethyl-N-(quinoxalin-2-yl)piperazine-1-carboxamide, reference compound] | 680 | 51 |
| COc1ncc(NC(=O)N2C[C@H](C)N(c3ccc(C#N)c(Br)c3)C[C@H]2C)cn1 [Ex 11, (2R,5S)-4-(3-bromo-4-cyanophenyl)-N-(2-methoxypyrimidin-5-yl)-2,5-dimethylpiperazine-1-carboxamide] | 23 | 26 |
| Cc1cc(NC(=O)N2C[C@H](C)N(c3ccc(C#N)c(Cl)c3)C[C@H]2C)cc(Cl)n1 [Ex 16, (2R,5S)-4-(3-chloro-4-cyanophenyl)-N-(2-chloro-6-methylpyridin-4-yl)-2,5-dimethylpiperazine-1-carboxamide] | 24 | 45 |
| COc1cc(NC(=O)N2C[C@H](C)N(c3ccc(C#N)c(Br)c3)C[C@H]2C)cc(C)n1 [Ex 19, (2R,5S)-4-(3-bromo-4-cyanophenyl)-N-(2-methoxy-6-methylpyridin-4-yl)-2,5-dimethylpiperazine-1-carboxamide] | 19 | 11 |
| COc1cc(N2C[C@@H](C)N(C(=O)Nc3nc(C)cc(O)n3)C[C@@H]2C)ccc1C#N [Ref 1-2, reference compound] | 89 | 58 |
| CC(C)Oc1cc(N2C[C@@H](C)N(C(=O)Nc3cnc(C4CC4)nc3)C[C@@H]2C)ccc1C#N [Ref 1-1, reference compound] | 350 | 140 |
| COc1cc(N2C[C@@H](C)N(C(=O)Nc3cc(C)nc(C)n3)C[C@@H]2C)ccc1C#N [Ex 7, (2R,5S)-4-(4-cyano-3-methoxyphenyl)-N-(2,6-dimethylpyrimidin-4-yl)-2,5-dimethylpiperazine-1-carboxamide] | – | 76 |
| COc1cc(NC(=O)N2C[C@H](C)N(c3ccc(C#N)c(Cl)c3)C[C@H]2C)cc(C)n1 [Ex 18, (2R,5S)-4-(3-chloro-4-cyanophenyl)-N-(2-methoxy-6-methylpyridin-4-yl)-2,5-dimethylpiperazine-1-carboxamide] | 15 | 10 |
| C[C@@H]1CN(c2ccc(C#N)c(Cl)c2)[C@@H](C)CN1C(=O)Nc1cnc(N2CCCCC2)nc1 [Ex 8, (2R,5S)-4-(3-chloro-4-cyanophenyl)-2,5-dimethyl-N-[2-(piperidin-1-yl)pyrimidin-5-yl]piperazine-1-carboxamide] | – | 17 |
